The values below come from PubChem BioAssay (NCI).

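A five-concentration, 48-hour dose response in 96-well plates underlies each endpoint, interpolated linearly between surrounding concentrations. At the TGI there is no net growth.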 Some results are limits rather than exact numbers.

Among the test systems are HL-60(TB) leukemia; OVCAR-3 ovarian; COLO 205 colon; SK-MEL-5 melanoma; OVCAR-4 ovarian; KM12 colon; SK-MEL-28 melanoma; NCI-H460 lung; SF-539 CNS.
What all share (test): DTP human tumour cell line panel, 48 h

For `CC(C)(C)OC(=O)NCC(=O)N1CCCN(C(=O)CNC(=O)OC(C)(C)C)CC1`, the TGI with HL-60(TB) leukemia, in the experiment with OVCAR-3 ovarian, with COLO 205 colon, in the experiment on SK-MEL-5 melanoma, in the experiment on OVCAR-4 ovarian and in the experiment with KM12 colon was above 100 µM in each case. In addition, the TGI in the experiment with SK-MEL-28 melanoma and in the experiment with NCI-H460 lung was above 100 µM each time.

For the compound `O=C1C[C@H](c2ccccc2)C2(C(=O)c3ccccc3C2=O)[C@H](c2ccccc2)C1`, the TGI in the experiment with HL-60(TB) leukemia, in the experiment with OVCAR-3 ovarian, in the experiment with COLO 205 colon, with SK-MEL-5 melanoma, in the experiment with OVCAR-4 ovarian and in the experiment on KM12 colon was above 100 µM each time. For the same compound, the TGI in the experiment with SK-MEL-28 melanoma and in the experiment with NCI-H460 lung was above 100 µM each time.

Take `COc1ccc(/C=N/n2c(Cc3ccc(Cl)cc3)n[nH]c2=O)c(OC)c1`: the total growth inhibition concentration (TGI) with OVCAR-3 ovarian was above 100 µM; with SF-539 CNS, above 100 µM; with COLO 205 colon, above 100 µM; with OVCAR-4 ovarian it was 41.6 µM; in the experiment with KM12 colon it was above 100 µM; in the experiment with SK-MEL-28 melanoma, above 100 µM. Besides, in the experiment on NCI-H460 lung, the TGI is above 100 µM.

For the compound `O=C(C#Cc1cn(C2CC(O)C(CO)O2)c(=O)[nH]c1=O)c1ccccc1` (configuration not stated), the TGI was 37.7 µM with OVCAR-3 ovarian; 52.5 µM in the experiment with SF-539 CNS; 65.7 µM in the experiment on COLO 205 colon; above 100 µM in the experiment with SK-MEL-5 melanoma; above 100 µM in the experiment with OVCAR-4 ovarian; above 100 µM in the experiment with KM12 colon. The TGI in the experiment on SK-MEL-28 melanoma and in the experiment on NCI-H460 lung was above 100 µM each time.

As to `c1ccc(C2=C(c3ccccc3)P(c3ccccc3)C2)cc1` (configuration not stated), the TGI with OVCAR-3 ovarian, with SF-539 CNS, in the experiment on COLO 205 colon, in the experiment with OVCAR-4 ovarian, with KM12 colon and in the experiment with SK-MEL-28 melanoma was above 100 µM each time. Also, the TGI in the experiment on NCI-H460 lung is above 100 µM.

As for `O=C(c1ccccc1)N1C(=S)N(c2ccc([N+](=O)[O-])cc2)C(=Nc2ccccc2)C1=Nc1ccccc1`, the TGI in the experiment on OVCAR-3 ovarian, in the experiment on SF-539 CNS, with COLO 205 colon, in the experiment on SK-MEL-5 melanoma, in the experiment with KM12 colon and in the experiment with SK-MEL-28 melanoma was above 100 µM each time. Besides, the TGI in the experiment on NCI-H460 lung was above 100 µM.

As to `COC1/C=C/C(C)C(C(C)C(OC)C(C)CCC(=O)C(C)C(C/C=C/N(C)C=O)OC)OC(=O)/C=C/C=C(\C)CC(OC)C(OC)C2=CC(=O)O[C@@H](C(C)C(OC)CC(OC)/C=C/C(C)C(O)C1)[C@H]2O` (some centres not stated), the TGI was 0.43 µM with HL-60(TB) leukemia; 0.277 µM in the experiment with OVCAR-3 ovarian; 0.381 µM with SF-539 CNS; 0.206 µM with SK-MEL-5 melanoma; 0.365 µM with OVCAR-4 ovarian; 3.02 µM in the experiment on KM12 colon. For the same compound, the TGI was 0.878 µM in the experiment on SK-MEL-28 melanoma and 0.553 µM in the experiment on NCI-H460 lung.

For `CCCCCCCCC/C=C1\CC(CO)(COC(=O)c2ccccc2)OC1=O` (configuration not stated), the TGI in the experiment with OVCAR-3 ovarian was 43.1 µM; in the experiment with COLO 205 colon, 33 µM; in the experiment on SK-MEL-5 melanoma, 28.6 µM; in the experiment with OVCAR-4 ovarian it was above 100 µM; in the experiment with KM12 colon it was 57.2 µM; in the experiment with SK-MEL-28 melanoma, 31.8 µM. Further, the concentration for total growth inhibition (TGI) in the experiment on NCI-H460 lung is 47.6 µM.

For the compound `C/C=C\C(CC(=O)NCCC1CN(C(=O)c2ccccc2)c2ccccc21)CC(=O)OC` (configuration not stated), the TGI with OVCAR-3 ovarian, with COLO 205 colon, with SK-MEL-5 melanoma, with OVCAR-4 ovarian, in the experiment on KM12 colon and in the experiment on SK-MEL-28 melanoma was above 100 µM throughout. In the experiment on NCI-H460 lung, this compound had a TGI above 100 µM.

As to `Cc1cc([N+](=O)[O-])ccc1N=NC(=O)NNc1ccc([N+](=O)[O-])cc1C`, the TGI with HL-60(TB) leukemia was determined as 40.9 µM; in the experiment on OVCAR-3 ovarian it was 34.4 µM; in the experiment with SK-MEL-5 melanoma it was 26.7 µM; with OVCAR-4 ovarian, 31.9 µM; in the experiment on SK-MEL-28 melanoma it was 29.9 µM; in the experiment with NCI-H460 lung, 33.4 µM.

As to `Cc1c(F)c(N)c2c(=O)cc(-c3ccc(NC(=O)C(N)CCCN=C(N)N)c(F)c3)oc2c1F` (configuration not stated), the TGI with HL-60(TB) leukemia was above 100 µM; in the experiment on SF-539 CNS it was 40.7 µM; with COLO 205 colon, above 100 µM; with SK-MEL-5 melanoma, 76.8 µM; in the experiment on OVCAR-4 ovarian it was 40.7 µM; with KM12 colon, 99.7 µM. Besides, the TGI in the experiment on SK-MEL-28 melanoma is 63.6 µM; in the experiment on NCI-H460 lung, above 64.9 µM.

In the case of `O=c1[nH]c2ccccc2c2oc(-c3ccccc3)nc12`, the TGI in the experiment with OVCAR-3 ovarian is above 100 µM; with SF-539 CNS, above 100 µM; in the experiment on COLO 205 colon, 37.6 µM; in the experiment with SK-MEL-5 melanoma, above 100 µM; in the experiment on OVCAR-4 ovarian it was above 100 µM; with KM12 colon it was above 100 µM. The same compound gave a TGI in the experiment with NCI-H460 lung above 100 µM.

With `COc1ccc2c(c1)-c1oc3ccccc3c(=O)c1CO2`, the TGI in the experiment on OVCAR-3 ovarian is above 100 µM; with SF-539 CNS, above 100 µM; in the experiment on COLO 205 colon it was above 100 µM; in the experiment with SK-MEL-5 melanoma, 36.2 µM; with KM12 colon, above 100 µM.

Turning to `N#Cc1nc(/C=C/c2ccccc2)oc1N`, the TGI with OVCAR-3 ovarian, in the experiment with SF-539 CNS, in the experiment on COLO 205 colon, in the experiment with SK-MEL-5 melanoma, with OVCAR-4 ovarian and in the experiment on KM12 colon was above 100 µM each time. Further, the TGI in the experiment with SK-MEL-28 melanoma and in the experiment with NCI-H460 lung was above 100 µM throughout.

Turning to `COc1cc(C2S/C(=C/c3ccccc3)C(=O)N2c2cccc([N+](=O)[O-])c2)cc(OC)c1OC` (configuration not stated), the TGI with COLO 205 colon, in the experiment with SK-MEL-5 melanoma, in the experiment with OVCAR-4 ovarian, in the experiment with KM12 colon and in the experiment on SK-MEL-28 melanoma was above 100 µM each time.

With `CC1(C)[C@@H]2C[C@H]1C(Cc1cccc(C[C@H]3c4cc(-c5ccccn5)ncc4[C@H]4C[C@@H]3C4(C)C)c1)c1cc(-c3ccccn3)ncc12` (some centres not stated), the concentration for total growth inhibition (TGI) in the experiment on OVCAR-3 ovarian was 37.2 µM; with SF-539 CNS it was above 28.4 µM; in the experiment with COLO 205 colon, above 58.6 µM; with SK-MEL-5 melanoma it was above 35.8 µM; in the experiment with OVCAR-4 ovarian it was above 100 µM; in the experiment with KM12 colon, above 76.9 µM. Further, the TGI is above 100 µM in the experiment on SK-MEL-28 melanoma and 12 µM with NCI-H460 lung.

Consider `Cc1nnc2sc(N/N=C/c3ccccc3)nn12`, for which the TGI in the experiment on OVCAR-3 ovarian, with SF-539 CNS, in the experiment on COLO 205 colon, in the experiment with SK-MEL-5 melanoma, in the experiment with OVCAR-4 ovarian and in the experiment with KM12 colon was above 100 µM throughout. Besides, the TGI in the experiment on SK-MEL-28 melanoma and in the experiment with NCI-H460 lung was above 100 µM throughout.

The term TGI denotes the concentration giving total growth inhibition. Read a high TGI as less potent growth arrest.
